According to patent US11851431B2, “Tricyclic Janus kinase 1 inhibitors, and compositions and methods thereof” (LYNK PHARMACEUTICALS CO. LTD., priority 2018, dated 2023):
pIC50: −log10 of the molar value.

What was measured:
JAK1 = biological target: T1, JAK1 (Homo sapiens, UniProt P23458); experiment: JAK biochemical microfluidic assay (Caliper EZ Reader), JAK1; settings: 1 mM ATP; head prints (5 nM)
T1 construct: purchased Carna Biosciences
Protocol: (§1) JAK activity was determined in the reaction buffer 50 mM HEPES, 0.01% Brij35, 10 mM MgCl2, 2 mM DTT by a microfluidic assay. The phosphorylation of a FAM labeled peptide substrate was monitored in the Caliper EZ Reader II (Perkin Elmer). The assay condition for each batch of enzyme (Carna Biosciences) was optimized to obtain 10% conversion rate of peptide substrate.
(§2) The test compounds were dissolved in DMSO to a stock concentration of 10 mM. Three-fold serially diluted compounds with top concentration of 5 μM were pre-incubated with JAK1, JAK2 or TYK2 for 10 min at ambient temperature. The final DMSO concentration of assay mixture was 1%. […] The reaction was stopped by adding 50 mM EDTA.
(§3) The percent inhibition was calculated by the following formula. % Inhibition=(Conversionmax−Conversionsample)/(Conversionmax−Conversionmin)*100 Conversionmax means the conversion rate in the positive well without addition of compound • […] means the conversion rate in the well without addition of enzyme • Conversionsample means the conversion rate of test compounds
(§4) The dose-response (percent inhibition) curve was plotted and IC50 values were determined by GraphPad software.

JAK2 = biological target: T2, JAK2 (Homo sapiens, UniProt O60674); experiment: JAK biochemical microfluidic assay (Caliper EZ Reader), JAK2; settings: 1 mM ATP; head prints (0.25 nM)
T2 construct: purchased Carna Biosciences
Protocol: as §1, §2, §3, §4

TYK2 = biological target: T3, TYK2 (Homo sapiens, UniProt P29597); experiment: JAK biochemical microfluidic assay (Caliper EZ Reader), TYK2; settings: 1 mM ATP; head prints (2.5 nM)
T3 construct: purchased Carna Biosciences
Protocol: as §1, §2, §3, §4

BaF3-TEL-JAK1 = experiment: Anti-proliferative assay, BaF3-TEL-JAK1 cells; assay type: cell-based; settings: 72 h, Cell-Titer Glo
Protocol: (§5) Dimerization domain of Tel protein fused with JAK kinase domain was permanently transduced into BaF3 cells, whose proliferation is dependent on JAK activity in the absence of IL-3 induction. These engineered BaF3-Tel-JAK cells were used to monitor JAK inhibitory activities of the compounds in the cellular.
(§6) BaF3-Tel-JAK cells were cultured in RPMI-1640 (Corning) containing 10% fetal bovine serum. Cells were seeded at 2000/well of white flat bottom 96-well plates. The well containing medium only was used as background control. After 24h growth, cells were treated with compounds. The test compounds were dissolved in DMSO to a stock concentration of 10 mM. 3-fold serially diluted compounds for 9 concentrations with top concentration of 10 μM was added into the each well. The final DMSO concentration was 0.2%. The cells continued to grow at 37° C. in 5% CO2 for 72 h after compound treatment. The viability was measured by cellular ATP determination using the Cell-Titer Glo luciferase reagent (Promega). The Luminescence value was recorded by a multi-label reader Envision (PerkinElmer). Values were transformed to percent inhibition using the following formula. % Inhibition=(Readoutmax−Readoutsample)/(Readoutmax−Readoutmin)*100
(§7) The well without compound but with equivalent DMSO was defined as Readout max
(§8) The well with only medium and equivalent DMSO was defined as Readout min
(§9) The dose-response (percent inhibition) curve was plotted and GI50 values (the concentration that causes 50% growth inhibition) were determined by GraphPad software.

BaF3-TEL-JAK2 = experiment: Anti-proliferative assay, BaF3-TEL-JAK2 cells; assay type: cell-based; settings: 72 h, Cell-Titer Glo
Protocol: as §5, §6, §7, §8, §9

[1] = Human liver microsome stability study; assay type: in vitro ADME; settings: liver microsomes, pH 7.4, 0.5 mg/mL microsomal protein, 1 μM test article; for microsomal CLint at 1 μM: read-out: HLM Clint; for half-life at 1 μM: read-out: HLM T½
Protocol: Commercially available human liver microsome (vendor: Corning) were used for study the Phase I stability of test articles.
Microsomes were pre-incubated with test compound or control compounds for 10 min at 37° C. in 100 mM potassium phosphate buffer, pH 7.4, 3.3 mM MgCl2. The reaction was initiated by addition of 80 μL of the NADPH regenerating system to 320 μL of each incubation mixture per time point. The final incubation condition was composed of 0.5 mg/mL microsomal protein, 1 μM test article/positive control, 1.3 mM NADP, 3.3 mM glucose-6-phosphate, and 0.6 U/mL glucose-6-phosphate dehydrogenase. The 0-minute samples were prepared by addition of an 80 μL aliquot of each incubation mixture to 400 μL quench reagent to precipitate proteins. And then a 20 μL aliquot of the NADPH regenerating system was added. At 10, 30, and 90 minutes, the reaction will be stopped by the addition of cold acetonitrile solution containing tolbutamide and propanolol served as internal standard. The samples taken at all time points were centrifuged at 4000×g for 15 minutes. 80 μL of supernatant are taken into 96-well assay plates pre-added with 160 μL ultrapure water, and then analyzed by LC/MS/MS (Shimadzu LC30AD & API4000/API5000)).
Concentrations of test articles, control compounds in the samples were determined by using LC/MS/MS) method. Plotting of the chromatograms and peak area integrations are carried out by Analyst (AB Sciex).
In the determination of the in vitro elimination constant, ke, of the control compounds, the analyte/internal standard peak area ratios will be converted to percentage remaining (% Remaining) with the following equation:
The CLint of microsomes was calculated using the formula: CLint (mic)=0.693/T1/2/mg microsome protein per mL.

[2] = Rat pharmacokinetic study; assay type: in vivo, Sprague-Dawley rats
Protocol: Pharmacokinetic profile of test articles were evaluated in fasted Sprague-Dawley rats. Typically, Rats were dosed with 1 mg/kg and 2 mg/kg by intravenous injection and oral gavage, respectively. After dosing, blood samples were collected at each time point. For IV injection group, time points were set at 5, 15, 30 min, and then 1, 2, 4, 8 and 24 hours after dosing. For oral gavage group, time points were set at 15, 30 min, and then 1, 2, 4, 8, and 24 hours. Blood was collected into appropriately labeled tubes containing K2EDTA as the anticoagulant. Plasma was obtained within 1 hours of blood collection by centrifugation at 8000×g and 4° C. for 6 minutes, and then stored at −20° C. until analyzed by LC/MS/MS for quantification.
PK parameter values, including, but not necessarily limited to, the maximum plasma concentrations (Cmax), the time to reach the maximum concentrations (Tmax), and the area under the plasma concentration vs. time curve (AUC) from time zero to 24-hour (AUC0-24h) were determined using WinNonlin program.

[3] = Sprague-Dawley, plasma, 1 mg/kg, Rat iv @1 mpk, 0.2 mg/mL in 4% DMSO + 15% Solutol HS 15 + 81% Saline

T3 sequence (P29597 whole entry): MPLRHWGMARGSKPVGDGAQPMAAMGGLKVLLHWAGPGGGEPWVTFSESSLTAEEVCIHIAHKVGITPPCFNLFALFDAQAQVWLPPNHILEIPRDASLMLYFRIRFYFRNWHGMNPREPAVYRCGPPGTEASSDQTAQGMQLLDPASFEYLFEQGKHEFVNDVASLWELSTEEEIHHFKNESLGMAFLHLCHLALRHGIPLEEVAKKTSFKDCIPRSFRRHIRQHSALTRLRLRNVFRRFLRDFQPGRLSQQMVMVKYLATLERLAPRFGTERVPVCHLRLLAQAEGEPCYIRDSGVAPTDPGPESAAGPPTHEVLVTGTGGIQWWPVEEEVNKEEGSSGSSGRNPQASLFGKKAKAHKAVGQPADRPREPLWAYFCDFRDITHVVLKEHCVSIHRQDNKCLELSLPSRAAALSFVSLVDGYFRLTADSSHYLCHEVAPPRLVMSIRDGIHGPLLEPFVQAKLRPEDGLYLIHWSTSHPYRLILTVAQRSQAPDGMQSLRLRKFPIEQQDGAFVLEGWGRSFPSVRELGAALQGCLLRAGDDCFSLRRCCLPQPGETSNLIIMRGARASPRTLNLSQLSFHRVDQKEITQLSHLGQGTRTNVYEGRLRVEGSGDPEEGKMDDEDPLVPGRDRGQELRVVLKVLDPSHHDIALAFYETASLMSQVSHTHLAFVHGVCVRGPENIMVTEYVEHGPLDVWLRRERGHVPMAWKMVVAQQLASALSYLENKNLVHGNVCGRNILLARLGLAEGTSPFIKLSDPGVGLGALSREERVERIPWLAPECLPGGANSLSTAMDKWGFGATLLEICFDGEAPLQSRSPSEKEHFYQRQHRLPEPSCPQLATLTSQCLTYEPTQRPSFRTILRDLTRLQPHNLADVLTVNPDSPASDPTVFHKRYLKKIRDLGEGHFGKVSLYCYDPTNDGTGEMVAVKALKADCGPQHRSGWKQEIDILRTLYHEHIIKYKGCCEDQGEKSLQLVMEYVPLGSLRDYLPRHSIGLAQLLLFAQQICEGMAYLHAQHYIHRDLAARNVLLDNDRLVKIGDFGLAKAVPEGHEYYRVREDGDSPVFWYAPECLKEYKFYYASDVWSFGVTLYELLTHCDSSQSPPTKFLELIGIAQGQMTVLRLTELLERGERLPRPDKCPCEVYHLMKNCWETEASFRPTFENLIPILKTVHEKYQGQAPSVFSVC
T2 sequence (O60674 whole entry): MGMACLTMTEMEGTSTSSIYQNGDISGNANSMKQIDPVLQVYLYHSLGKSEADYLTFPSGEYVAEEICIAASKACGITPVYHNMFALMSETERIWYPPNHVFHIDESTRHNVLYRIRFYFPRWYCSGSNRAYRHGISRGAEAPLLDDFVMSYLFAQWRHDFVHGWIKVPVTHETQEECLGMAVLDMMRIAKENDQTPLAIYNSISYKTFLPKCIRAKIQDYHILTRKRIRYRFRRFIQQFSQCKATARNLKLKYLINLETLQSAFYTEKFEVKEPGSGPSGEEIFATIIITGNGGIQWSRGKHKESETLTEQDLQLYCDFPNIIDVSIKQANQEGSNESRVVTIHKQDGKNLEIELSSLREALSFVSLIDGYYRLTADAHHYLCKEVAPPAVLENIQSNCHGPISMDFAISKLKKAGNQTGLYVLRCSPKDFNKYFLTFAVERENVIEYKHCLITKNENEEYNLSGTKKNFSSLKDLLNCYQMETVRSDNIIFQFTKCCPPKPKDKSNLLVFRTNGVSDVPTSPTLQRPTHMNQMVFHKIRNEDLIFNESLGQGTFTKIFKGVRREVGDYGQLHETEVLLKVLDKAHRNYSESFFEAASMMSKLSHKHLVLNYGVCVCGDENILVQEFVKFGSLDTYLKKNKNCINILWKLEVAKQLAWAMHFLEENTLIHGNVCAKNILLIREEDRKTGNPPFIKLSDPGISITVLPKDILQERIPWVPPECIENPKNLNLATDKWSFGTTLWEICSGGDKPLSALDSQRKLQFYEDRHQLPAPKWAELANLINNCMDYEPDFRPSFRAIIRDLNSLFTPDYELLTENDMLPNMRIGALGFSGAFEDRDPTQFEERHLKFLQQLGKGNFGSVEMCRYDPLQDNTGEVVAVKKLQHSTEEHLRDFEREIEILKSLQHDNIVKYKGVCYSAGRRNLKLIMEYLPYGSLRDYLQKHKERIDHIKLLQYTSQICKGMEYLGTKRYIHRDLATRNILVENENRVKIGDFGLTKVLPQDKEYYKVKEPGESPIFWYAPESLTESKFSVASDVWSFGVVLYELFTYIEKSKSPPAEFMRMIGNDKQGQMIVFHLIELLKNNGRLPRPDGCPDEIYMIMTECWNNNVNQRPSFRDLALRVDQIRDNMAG
T1 sequence (P23458 whole entry): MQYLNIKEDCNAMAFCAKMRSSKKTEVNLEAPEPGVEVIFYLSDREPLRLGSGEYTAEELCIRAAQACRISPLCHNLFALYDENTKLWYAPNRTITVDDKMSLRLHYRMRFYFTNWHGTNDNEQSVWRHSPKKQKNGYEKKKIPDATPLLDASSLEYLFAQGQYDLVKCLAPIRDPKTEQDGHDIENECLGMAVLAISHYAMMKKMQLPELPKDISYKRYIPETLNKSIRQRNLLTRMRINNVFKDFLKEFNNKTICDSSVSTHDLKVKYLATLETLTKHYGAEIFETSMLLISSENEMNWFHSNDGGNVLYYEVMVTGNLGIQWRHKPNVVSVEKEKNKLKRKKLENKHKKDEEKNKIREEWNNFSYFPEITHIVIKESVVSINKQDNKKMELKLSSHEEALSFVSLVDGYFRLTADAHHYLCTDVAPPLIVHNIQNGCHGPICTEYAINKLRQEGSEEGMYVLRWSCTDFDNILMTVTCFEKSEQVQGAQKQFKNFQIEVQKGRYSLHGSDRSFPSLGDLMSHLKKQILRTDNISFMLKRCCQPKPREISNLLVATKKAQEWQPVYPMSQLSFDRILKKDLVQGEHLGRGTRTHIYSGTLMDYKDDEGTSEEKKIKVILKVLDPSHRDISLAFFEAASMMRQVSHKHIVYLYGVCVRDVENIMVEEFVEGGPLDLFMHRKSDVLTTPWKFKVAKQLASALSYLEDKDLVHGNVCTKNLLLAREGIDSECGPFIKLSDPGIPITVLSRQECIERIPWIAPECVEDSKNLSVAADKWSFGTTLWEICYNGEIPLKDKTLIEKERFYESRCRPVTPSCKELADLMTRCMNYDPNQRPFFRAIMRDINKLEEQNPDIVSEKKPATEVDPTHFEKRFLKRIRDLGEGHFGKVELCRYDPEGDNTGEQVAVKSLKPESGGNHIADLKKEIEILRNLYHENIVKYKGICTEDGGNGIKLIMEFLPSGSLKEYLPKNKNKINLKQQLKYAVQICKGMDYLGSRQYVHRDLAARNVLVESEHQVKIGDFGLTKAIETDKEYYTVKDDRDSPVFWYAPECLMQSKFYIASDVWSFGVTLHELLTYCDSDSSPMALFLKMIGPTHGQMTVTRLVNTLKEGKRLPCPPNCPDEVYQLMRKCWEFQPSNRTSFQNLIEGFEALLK

Row | pIC50 (JAK1) | pIC50 (JAK2) | pIC50 (TYK2) | GI50 (BaF3-TEL-JAK1) | GI50 (BaF3-TEL-JAK2) | microsomal CLint at 1 μM [1] | half-life at 1 μM [1] | AUC [2, 3] | Vd [2, 3] | clearance [2, 3] | half-life ([2]; Sprague-Dawley, plasma, 1 mg/kg, Rat iv @1 mpk, 0.2 mg/mL in 4% DMSO + 15% Solutol HS 15 + 81% Saline, read-out: t½ (converted)) | Pharmacokinetic profile in rats ([2]; conclusion in words) | SMILES
1 | 7.37 | 6.33 | 5.54 | – | – | – | – | – | – | – | – | – | CC(C)(C)OC(=O)NC12CC(n3cnc4cnc5[nH]ccc5c43)(C1)C2 [Example 1i, Tert-butyl (3-(imidazo[4,5-d]pyrrolo[2,3-b]pyridin-1(6H)-yl)bicyclo[1.1.1]pentan-1-yl)carbamate]
2 | 7.16 | 5.96 | 5.55 | 352 nM | 2300 nM | – | – | – | – | – | – | – | CCCS(=O)(=O)N[C@H]1C[C@@H](n2cnc3cnc4[nH]ccc4c32)C1 [Example 2, N-(Cis-3-(imidazo[4,5-d]pyrrolo[2,3-b]pyridin-1(6H)-yl)cyclobutyl)propane-1-sulfonamide]
3 | 6.72 | 5.81 | 5.44 | 1090 nM | 2540 nM | – | – | – | – | – | – | – | CCCS(=O)(=O)N[C@H]1C[C@H](n2cnc3cnc4[nH]ccc4c32)C1 [Example 3, N-(trans-3-(imidazo[4,5-d]pyrrolo[2,3-b]pyridin-1(6H)-yl)cyclobutyl)propane-1-sulfonamide]
4 | 8.49 | 7.08 | 6.95 | – | – | 2.11 µL/min/mg | 10.9 h | 402 ng·h/mL | 0.93 L/kg | 41.9 mL/min/kg | 0.26 h | good Pharmacokinetic profile | N#CC1CN(S(=O)(=O)NC23CC(n4cnc5cnc6[nH]ccc6c54)(C2)C3)C1 [Example 4, 3-Cyano-N-(3-(imidazo[4,5-d]pyrrolo[2,3-b]pyridin-1(6H)-yl)bicyclo[1.1.1]pentan-1-yl)azetidine-1-sulfonamide]
5 | 8.26 | 6.84 | 6.95 | 10 nM | 380 nM | – | – | – | – | – | – | – | CC(C)CS(=O)(=O)NC12CC(n3cnc4cnc5[nH]ccc5c43)(C1)C2 [Example 5, N-(3-(imidazo[4,5-d]pyrrolo[2,3-b]pyridin-1(6H)-yl)bicyclo[1.1.1]pentan-1-yl)-2-methylpropane-1-sulfonamide]
6 | 7.61 | 6.22 | 5.98 | – | – | – | – | – | – | – | – | – | COCCS(=O)(=O)NC12CC(n3cnc4cnc5[nH]ccc5c43)(C1)C2 [Example 6, N-(3-(imidazo[4,5-d]pyrrolo[2,3-b]pyridin-1(6H)-yl)bicyclo[1.1.1]pentan-1-yl)-2-methoxyethanesulfonamide]
7 | 7.34 | 6.33 | 6.24 | – | – | – | – | – | – | – | – | – | O=S(=O)(NC12CC(n3cnc4cnc5[nH]ccc5c43)(C1)C2)C1CC1 [Example 7, N-(3-(imidazo[4,5-d]pyrrolo[2,3-b]pyridin-1(6H)-yl)bicyclo[1.1.1]pentan-1-yl)cyclopropanesulfonamide]
8 | 8.09 | 7.14 | – | – | – | 0.77 µL/min/mg | 29.8 h | – | – | – | – | – | N#CCCC(=O)NC12CC(n3cnc4cnc5[nH]ccc5c43)(C1)C2 [Example 14, 3-Cyano-N-(3-(imidazo[4,5-d]pyrrolo[2,3-b]pyridin-1(6H)-yl)bicyclo[1.1.1]pentan-1-yl)propanamide]
9 | 7.73 | 6.78 | – | 120 nM | 291 nM | – | – | – | – | – | – | – | O=C(CCC(F)(F)F)NC12CC(n3cnc4cnc5[nH]ccc5c43)(C1)C2 [Example 18, 4,4,4-Trifluoro-N-(3-(imidazo[4,5-d]pyrrolo[2,3-b]pyridin-1(6H)-yl)bicyclo[1.1.1]pentan-1-yl)butanamide]
10 | 8.08 | 6.48 | 6.70 | – | – | – | – | – | – | – | – | – | N#CC1CCN(S(=O)(=O)NC23CC(n4cnc5cnc6[nH]ccc6c54)(C2)C3)C1 (stereo not drawn) [Example 20, 3-Cyano-N-(3-(imidazo[4,5-d]pyrrolo[2,3-b]pyridin-1(6H)-yl)bicyclo[1.1.1]pentan-1-yl)pyrrolidine-1-sulfonamide]
11 | 8.47 | 7.29 | 7.47 | 41.6 nM | 148 nM | – | – | – | – | – | – | – | O=S(=O)(NC12CC(n3cnc4cnc5[nH]ccc5c43)(C1)C2)N1CC(F)(F)C1 [Example 23, 3,3-difluoro-N-(3-(imidazo[4,5-d]pyrrolo[2,3-b]pyridin-1(6H)-yl)bicyclo[1.1.1]pentan-1-yl)azetidine-1-sulfonamide]
12 | 8.17 | 6.59 | 6.38 | 51 nM | 286 nM | – | – | – | – | – | – | – | O=S(=O)(NC12CC(n3cnc4cnc5[nH]ccc5c43)(C1)C2)c1ccc(Cl)cc1 [Example 28, 4-Chloro-N-(3-(imidazo[4,5-d]pyrrolo[2,3-b]pyridin-1(6H)-yl)bicyclo[1.1.1]pentan-1-yl)benzenesulfonamide]
13 | 8.32 | 6.89 | 6.77 | 27.8 nM | 198 nM | – | – | – | – | – | – | – | CCCCS(=O)(=O)NC12CC(n3cnc4cnc5[nH]ccc5c43)(C1)C2 [Example 31, N-(3-(imidazo[4,5-d]pyrrolo[2,3-b]pyridin-1(6H)-yl)bicyclo[1.1.1]pentan-1-yl)butane-1-sulfonamide]
14 | 8.07 | 7.02 | – | 99.6 nM | 1000 nM | – | – | – | – | – | – | – | O=C(NCC(F)(F)F)NC12CC(n3cnc4cnc5[nH]ccc5c43)(C1)C2 [Example 41, 1-(3-(Imidazo[4,5-d]pyrrolo[2,3-b]pyridin-1(6H)-yl)bicyclo[1.1.1]pentan-1-yl)-3-(2,2,2-trifluoroethyl)urea]
15 | 8.66 | 7.11 | 6.97 | 14.2 nM | 133 nM | – | – | – | – | – | – | – | O=S(=O)(CC1CC(F)(F)C1)NC12CC(n3cnc4cnc5[nH]ccc5c43)(C1)C2 [Example 46, 1-(3,3-Difluorocyclobutyl)-N-(3-(imidazo[4,5-d]pyrrolo[2,3-b]pyridin-1(6H)-yl)bicyclo[1.1.1]pentan-1-yl)methanesulfonamide]
